In US20170306047A1, “PHARMACEUTICAL COMPOSITION FOR CANCER PREVENTION AND TREATMENT, CONTAINING NDRG3 EXPRESSION OR ACTIVITY INHIBITOR AS ACTIVE INGREDIENT, OR NDRG3 PROTEIN-SPECIFIC ANTIBODY AND USE THEREOF” (KOREA RESEARCH INSTITUTE OF BIOSCIENCE AND BIOTECHNOLOGY, priority 2014, published 2017):
Each block holds one molecule with its values, some of them ahead of it. Where a SMILES comes first, the peptide text is derived from it. The star is where a group is joined. Cbz = O=C(OCc1ccccc1)*

Key:
[1] = test system: NDRG3 protein in MCF-7 cells; test: NDRG3 protein expression after inhibition of glycolysis, MCF-7 cells; format: cell-based; details: varying concentration, 24 hours, hypoxic condition (1% O2)
Protocol: Additionally, to check an effect of inhibition of glycolysis on expression of the NDRG3 protein, MCF-7 cells were treated with a varying concentration of 2-deoxyglucose (2-DG) inhibiting the glycolysis, statically cultured for 24 hours under a hypoxic condition (1% O2), as described in Example 5-2, and then collected and lysed, as described in Example 3. Thereafter, the MCF-7 cells were subjected to Western blotting using anti-NDRG3 and anti-β-actin antibodies (FIG. 15D).

[2] = test system: NDRG3 protein in HeLa cells; test: NDRG3 protein expression after PHD2 inhibition, Western blotting, HeLa cells; format: cell-based; details: varying concentration, 24 hours, normoxic condition (21% O2)
Protocol: (§1) Also, to determine the functional relationship between PHD2 and NDRG3, MCF-7 cells (FIG. 4B) or HeLa cells (FIG. 4C) were treated with a varying concentration of desferrioxamine (DFX), which was a PHD2 inhibitor, for 24 hours under a normoxic condition (21% O2), and then lysed, as described in Example 3. The cell lysate was subjected to Western blotting using anti-NDRG3, anti-HIF-1α, and anti-β-actin (FIGS. 4B and 4C).

[3] = test system: NDRG3 protein in MCF-7 cells; test: NDRG3 protein expression after PHD2 inhibition, Western blotting, MCF-7 cells; format: cell-based; details: varying concentration, 24 hours, normoxic condition (21% O2)
Protocol: as §1

[4] = test system: NDRG3 protein in NDRG3-overexpressing HeLa cells; test: In vivo ubiquitination assay of NDRG3 under proteasome inhibition; format: cell-based; details: 20 μM for 8 hours, normoxic condition
Protocol: Specifically, a vector for transfection (an MSCV retroviral system) was constructed using a full-length NDRG3 cDNA (SEQ ID NO: 1) and a pMSCVneo retroviral vector (Clontech). To construct the viral vector, a GP293 cell line was transfected using lipofectamine (Invitrogen). After 48 hours, HeLa cells were treated with a cell supernatant containing NDRG3-retroviruses or control-retroviruses together with 6 μg/ml of polybrene for 24 hours. Then, the cells in which the NDRG3 was overexpressed were untreated or treated with 20 μM MG132 for 8 hours, and then collected. The collected cells were subjected to Western blotting using an anti-NDRG3 antibody and an anti-β-actin antibody (FIG. 7A).
Also, to determine ubiquitination of NDRG3 under a normoxic condition, an in vivo ubiquitination assay was performed. First, a vector for transfection was constructed using shNDRG3 (Sigma-Aldrich, SEQ ID NO: 4) and a lentiviral vector to inhibit expression of the NDRG3. To construct the viral vector, a packing cell line was transfected as described above. Thereafter, HeLa cells were treated with a cell supernatant containing the NDRG3 shRNA-expressing lentiviruses together with 6 μg/ml of polybrene, and kept in a DMEM medium supplemented with 10% FBS. […]

[5] = target: T1, recombinant human NDRG3-GST (Homo sapiens, UniProt Q9UGV2); test: In vitro ubiquitination assay of recombinant NDRG3 by PHD2/VHL complex; format: biochemical; details: L-lactate pH 7.0, 20 mM
T1 construct: made in house; host or cells: E. coli BL21 (NDRG3-GST); HEK293T immunoprecipitates (PHD2, VHL)
Protocol: Further, to check an effect of lactate generation on ubiquitination of the NDRG3, an in vitro ubiquitination assay was performed. First, HEK293T cells were transfected with the Flag-tagged PHD2 and HA-tagged VHL variants, as described in Example 3, collected, and then lysed. Thereafter, the protein lysate (500 μg) was reacted with an anti-HA affinity gel (Sigma) or an anti-Flag affinity gel (Sigma) at 4° C. for a day, and centrifuged to obtain recombinant PHD2 proteins or VHL proteins. Then, the recombinant PHD2-/VHL-binding proteins were untreated or treated with L-lactate (pH 7.0, 20 mM), and then reacted at 37° C. for an hour in 50 μl of a solution including recombinant human NDRG3-GST (4 μg) prepared by the method described in Example 4-1, 500 ng of a ubiquitin-activating enzyme (E1, Upstate), 1 μg of a ubiquitin-conjugating enzyme (E2 (UbcH5a), Upstate), 2.5 μg of ubiquitin-Flag (Sigma), 20 mM HEPES (pH 7.3), 5 mM MgCl2, 1 mM DTT, and 2 mM ATP. Subsequently, the mixture was incubated with a GST-conjugated agarose resin at 4° C. for 4 hours, and the precipitate was washed, and subjected to Western blotting using an anti-Flag antibody, as described in Example 3 (FIG. 15F).

[6] = target: T2, recombinant GST-NDRG3 protein (Homo sapiens, UniProt Q9UGV2); test: In vitro binding assay with L-[14C]-lactate, wild-type NDRG3; details: 50 μg GST-NDRG3 versus GST, 30° C., one hour
T2 construct: made in house; host or cells: E. coli BL21
Protocol: Also, to confirm interaction between L-lactate and the NDRG3 protein, an in vitro binding assay was performed. GST or the recombinant GST-NDRG3 protein (50 μg) was reacted with 0.5 μCi of unlabeled L-lactate (pH 7.0, Sigma) and L-[^14C]-lactate (PerkinElmer) at 30° C. for an hour. Thereafter, a GST-conjugated agarose resin was added thereto, and the resulting mixture was reacted for 4 hours. Then, a resin to which the NDRG3-GST protein was bound was separated from the reaction mixture, and impurities were removed using PBS. Subsequently, the NDRG3-bound agarose resin was transferred to a scintillation solution containing 2 ml of an LSC-cocktail (PerkinElmer), and ^14C values were measured, and plotted in a graph (Left panel of FIG. 16B). Also, GST, the recombinant GST-NDRG3 protein (50 μg) or the recombinant GST-NDRG3 (G138W) variant protein (50 μg) was reacted with 0.5 μCi of L-[^14C]-lactate (PerkinElmer) at 30° C. for an hour, and ^14C values were then measured in the same manner as described above, and plotted in a graph (Right panel of FIG. 16B).

[7] = target: T3, recombinant GST-NDRG3 (G138W) variant protein (Homo sapiens, UniProt Q9UGV2, G138W); test: In vitro binding assay with L-[14C]-lactate, NDRG3 (G138W) variant; details: 50 μg GST-NDRG3 (G138W) versus GST-NDRG3
T3 construct: made in house; host or cells: E. coli BL21
Protocol: Specifically, to confirm interaction between L-lactate and the NDRG3 protein, a site-directed mutation was performed, as described in Example 4-3, using the pGEX-4T-2-NDRG3, which was cloned by the method disclosed in Example 4-1, as a template, and primers listed in the following Table 4, thereby obtaining a pGEX-4T-2-NDRG3 (G138W) variant construct in which glycine (G) that was an amino acid at position 138 among the L-lactate binding sites of the NDRG3 was substituted with […]. […]
Also, to confirm interaction between L-lactate and the NDRG3 protein, an in vitro binding assay was performed. […] Subsequently, the NDRG3-bound agarose resin was transferred to a scintillation solution containing 2 ml of an LSC-cocktail (PerkinElmer), and ^14C values were measured, and plotted in a graph (Left panel of FIG. 16B). Also, GST, the recombinant GST-NDRG3 protein (50 μg) or the recombinant GST-NDRG3 (G138W) variant protein (50 μg) was reacted with 0.5 μCi of L-[^14C]-lactate (PerkinElmer) at 30° C. for an hour, and ^14C values were then measured in the same manner as described above, and plotted in a graph (Right panel of FIG. 16B).

[8] = test system: human umbilical vein endothelial cells (HUVEC); test: Tube forming assay, culture broth of NDRG3 (N66D) variant-overexpressing Huh-1 cells; format: cell-based; details: ectopic NDRG3 (N66D) variant overexpressed, 24 hours, hypoxic condition (1% O2)
Protocol: (§2) Specifically, a tube forming assay was performed to check a change in angiogenesis activity by the NDRG3 deletion. First, the Huh-7 cells (2×10^5 cells/ml) in which the expression of the NDRG3 was inhibited using shNDRG3 according to the method described in Example 4-4, and the control Huh-7 cells were cultured for 24 hours under a hypoxic condition (1% O2), and a culture broth (1 ml) was recovered, and then cultured with human umbilical vein endothelial cells (HUVEC; 1×10^5 cells/ml) for 6 to 12 hours in a 6-well dish previously coated with Matrigel to observe formation of tubes (FIG. 13A).
(§3) Specifically, Huh-1 cells in which the NDRG3 (N66D) variant was overexpressed were prepared, and the control cells and the NDRG3 (N66D) variant-overexpressing Huh-1 cells were untreated or treated with sodium oxamate, statically cultured for 24 hours under a hypoxic condition (1% O2). Thereafter, the cells were collected, as described in Example 6-2, and then subjected to a tube forming assay (FIG. 18).

[9] = test system: NDRG3 (N66D) variant in Huh-1 cells; test: NDRG3 variant accumulation after inhibition of lactate generation, NDRG3 (N66D)-overexpressing Huh-1 cells; format: cell-based; details: ectopic NDRG3 (N66D) variant overexpressed, 40 mM, light hypoxic condition
Protocol: (§4) Also, to check an effect of the inhibition of the lactate generation on expression of the ectopic variant NDRG3 (N66D) protein under a sustained hypoxic condition, Huh-1 cells and the NDRG3 (N66D) variant-overexpressing Huh-1 cells were untreated or treated with 40 mM sodium oxamate, statically cultured by time under a light hypoxic condition, and then collected and lysed, as described in Example 3. Thereafter, the cell lysate was subjected to Western blotting using anti-NDRG3 and anti-β-actin antibodies (FIG. 17E).

[10] = test system: human umbilical vein endothelial cells (HUVEC); test: Tube forming assay, culture broth of Huh-1 cells; format: cell-based; details: control Huh-1 cells, 24 hours, hypoxic condition (1% O2)
Protocol: as §2, §3

[11] = test system: NDRG3 protein in MCF-7 cells; test: NDRG3 protein accumulation after inhibition of L-lactate generation, MCF-7 cells; format: cell-based; details: varying concentration, 24 hours, hypoxic condition (1% O2)
Protocol: Also, to check an effect of inhibition of the L-lactate generation on expression of the NDRG3 protein, MCF-7 cells were treated with a varying concentration of sodium oxamate that was a lactate dehydrogenase A (LDHA) inhibitor, statically cultured for 24 hours under a hypoxic condition (1% O2), as described in Example 5-2, and then collected and lysed, as described in Example 3. Thereafter, the cell lysate was subjected to Western blotting using anti-NDRG3, anti-HIF-1α and anti-β-actin antibodies, as described above, and L-lactate generation was determined, and then plotted in a graph. The values were normalized to the L-lactate standard curve (FIG. 15B).

[12] = test system: NDRG3 (N66D) variant-overexpressing Huh-1 cells; test: MTT assay of cell growth, NDRG3 (N66D) variant-overexpressing Huh-1 cells; format: cell-based; details: ectopic NDRG3 (N66D) variant overexpressed, light hypoxic condition (3% O2)
Protocol: (§5) Specifically, to check the cell growth in response to the NDRG3 deletion, an MTT assay was performed. First, the NDRG3-deleted Huh-1 cells prepared by the method disclosed in Example 6-1, and the control Huh-1 cells was seeded at a density of 2,000 cells/well in a 96-well plate, and then cultured at 37° C. in a 5% CO2 incubator under a hypoxic condition (3% O2) over time. Thereafter, the cells were treated with a 1 mg/ml MTT solution diluted with PBS, and reacted for 2 hours. Then, a medium containing the MTT was removed, and the cells were treated with 100 μl of DMSO to dissolve MTT formazan crystals. Subsequently, an optical density of the cell suspension was measured at a wavelength of 570 nm using a spectrophotometer (FIG. 14A).
(§6) Specifically, to check an effect of the ectopic NDRG3 (N66D) variant on the cell growth after inhibition of the lactate generation, Huh-1 cells were transfected with an ectopic variant NDRG3 (N66D) expression vector, as described in Example 4-3. Then, the Huh-1 cells and the NDRG3 (N66D) variant-overexpressing Huh-1 cells were seeded at a density of 1,000 cells/well in a 96-well plate, treated with a varying concentration of sodium oxamate, statically cultured by time under a light hypoxic condition (3% O2). Thereafter, to check the cell growth, an MTT assay was performed, as described in Example 6-3, and plotted in a graph (FIG. 17A).

[13] = test system: NDRG3 protein in Huh-1 cells; test: NDRG3 accumulation after inhibition of lactate generation, Western blotting, Huh-1 cells; format: cell-based; details: 40 mM, light hypoxic condition
Protocol: as §4

Huh-1 cells = test: MTT assay of cell growth, Huh-1 cells; format: cell-based; details: varying concentration, light hypoxic condition (3% O2)
Protocol: as §5, §6

T2 sequence (Q9UGV2 whole entry): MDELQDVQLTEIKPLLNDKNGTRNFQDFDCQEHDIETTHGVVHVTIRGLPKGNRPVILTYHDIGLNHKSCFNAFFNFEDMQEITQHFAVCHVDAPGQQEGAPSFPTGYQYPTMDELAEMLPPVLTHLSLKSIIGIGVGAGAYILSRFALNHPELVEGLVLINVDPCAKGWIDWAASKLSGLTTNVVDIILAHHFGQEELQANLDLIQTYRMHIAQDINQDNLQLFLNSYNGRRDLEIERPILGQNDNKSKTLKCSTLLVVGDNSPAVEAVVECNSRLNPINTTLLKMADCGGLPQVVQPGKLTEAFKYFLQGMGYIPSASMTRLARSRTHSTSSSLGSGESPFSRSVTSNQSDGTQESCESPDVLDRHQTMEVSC
T1 sequence (Q9UGV2 whole entry): as above
T3 sequence (Q9UGV2 whole entry G138W): as the sequence (Q9UGV2 whole entry) above, with G138W counted along it

SMILES: O=CC[C@@H](O)[C@H](O)[C@H](O)CO [2-deoxyglucose]
expression of NDRG3 protein [1]: reduced

SMILES: CC(=O)N(O)CCCCCNC(=O)CCC(=O)N(O)CCCCCNC(=O)CCC(=O)N(O)CCCCCN [DFX, desferrioxamine]
expression of NDRG3 protein [2]: increasingly expressed
expression of NDRG3 protein [3]: increasingly expressed

SMILES: CC(C)C[C@@H](C=O)NC(=O)[C@H](CC(C)C)NC(=O)[C@H](CC(C)C)NC(=O)OCc1ccccc1 [MG132] (Cbz-Leu-Leu-Leu-aldehyde)
ubiquitination of NDRG3 protein [4]: actively ubiquitinated

ubiquitination of recombinant NDRG3 protein by PHD2/VHL complex [5]: reduced
in vitro binding of recombinant NDRG3 protein to lactate (14C values) [6]: increased
lactate-binding affinity of NDRG3 variant protein (14C values) [7]: reduced
SMILES: C[C@H](O)C(=O)O [lactate, L-lactate]

SMILES: NC(=O)C(=O)[O-].[Na+] [sodium oxamate]
angiogenesis (tube formation) [8]: increased again
accumulation of NDRG3 variant [9]: lasted
angiogenesis (tube formation) [10]: inhibited
accumulation of NDRG3 protein [11]: inhibited in proportion to the lactate expression
cell growth (MTT) [12]: increased
accumulation of NDRG3 [13]: inhibited
cell growth (MTT) (Huh-1 cells): inhibited in a concentration-dependent manner
